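Following 48 hours of exposure in 96-well plates, responses at five concentrations were used to interpolate endpoints linearly. GI50 is the concentration that inhibits growth by half. TGI is the concentration that stops growth completely.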
Key:
Test in all cases: DTP human tumour cell line panel, 48 h
UO-31 renal = tested on: UO-31 renal
SF-539 CNS = tested on: SF-539 CNS
786-0 renal = tested on: 786-0 renal
TK-10 renal = tested on: TK-10 renal
IGROV1 ovarian = tested on: IGROV1 ovarian
MDA-MB-231 breast = tested on: MDA-MB-231 breast
HT29 colon = tested on: HT29 colon
U251 CNS = tested on: U251 CNS
MALME-3M melanoma = tested on: MALME-3M melanoma
MDA-MB-435 = tested on: MDA-MB-435
HL-60(TB) leukemia = tested on: HL-60(TB) leukemia
MOLT-4 leukemia = tested on: MOLT-4 leukemia
OVCAR-5 ovarian = tested on: OVCAR-5 ovarian
UACC-257 melanoma = tested on: UACC-257 melanoma
M14 melanoma = tested on: M14 melanoma
MDA-N = tested on: MDA-N
SK-OV-3 ovarian = tested on: SK-OV-3 ovarian
DU-145 prostate = tested on: DU-145 prostate
SNB-19 CNS = tested on: SNB-19 CNS
NCI-H23 lung = tested on: NCI-H23 lung
PC-3 prostate = tested on: PC-3 prostate
NCI/ADR-RES ovarian = tested on: NCI/ADR-RES ovarian
BT-549 breast = tested on: BT-549 breast
OVCAR-8 ovarian = tested on: OVCAR-8 ovarian
A549 NSCLC = tested on: A549 NSCLC
SK-MEL-5 melanoma = tested on: SK-MEL-5 melanoma
KM12 colon = tested on: KM12 colon
OVCAR-4 ovarian = tested on: OVCAR-4 ovarian
HOP-92 NSCLC = tested on: HOP-92 NSCLC
SR leukemia = tested on: SR leukemia
NCI-H226 lung = tested on: NCI-H226 lung
LOX IMVI melanoma = tested on: LOX IMVI melanoma
MCF7 breast = tested on: MCF7 breast
COLO 205 colon = tested on: COLO 205 colon
HCC-2998 colon = tested on: HCC-2998 colon
SN12C renal = tested on: SN12C renal
HCT-15 colon = tested on: HCT-15 colon
RPMI-8226 leukemia = tested on: RPMI-8226 leukemia
NCI-H460 lung = tested on: NCI-H460 lung
NCI-H522 lung = tested on: NCI-H522 lung
SK-MEL-2 melanoma = tested on: SK-MEL-2 melanoma
RXF 393 renal = tested on: RXF 393 renal
SK-MEL-28 melanoma = tested on: SK-MEL-28 melanoma
OVCAR-3 ovarian = tested on: OVCAR-3 ovarian
SW-620 colon = tested on: SW-620 colon
SF-295 CNS = tested on: SF-295 CNS
HOP-62 NSCLC = tested on: HOP-62 NSCLC
EKVX NSCLC = tested on: EKVX NSCLC
SF-268 CNS = tested on: SF-268 CNS
CCRF-CEM leukemia = tested on: CCRF-CEM leukemia
T-47D breast = tested on: T-47D breast
K-562 leukemia = tested on: K-562 leukemia
SNB-75 CNS = tested on: SNB-75 CNS
CAKI-1 renal = tested on: CAKI-1 renal
HCT-116 colon = tested on: HCT-116 colon
A498 renal = tested on: A498 renal
HS 578T breast = tested on: HS 578T breast
ACHN renal = tested on: ACHN renal
UACC-62 melanoma = tested on: UACC-62 melanoma
KM20L2 colon = tested on: KM20L2 colon
DMS 273 small cell lung = tested on: DMS 273 small cell lung
XF 498 CNS = tested on: XF 498 CNS
SNB-78 CNS = tested on: SNB-78 CNS
DMS 114 small cell lung = tested on: DMS 114 small cell lung
M19-MEL melanoma = tested on: M19-MEL melanoma

CCOC(=O)C(=CN1CCNC1=S)C(=O)OCC
GI50 (UO-31 renal): > 100 µM | TGI (UO-31 renal): > 100 µM | TGI (SF-539 CNS): > 100 µM | TGI (786-0 renal): > 100 µM | GI50 (TK-10 renal): > 100 µM | TGI (TK-10 renal): > 100 µM | TGI (IGROV1 ovarian): > 100 µM | TGI (MDA-MB-231 breast): > 100 µM | TGI (HT29 colon): > 100 µM | TGI (U251 CNS): > 100 µM | TGI (MALME-3M melanoma): > 100 µM | TGI (MDA-MB-435): > 100 µM | TGI (HL-60(TB) leukemia): > 100 µM | TGI (MOLT-4 leukemia): > 100 µM | TGI (OVCAR-5 ovarian): > 100 µM | TGI (UACC-257 melanoma): > 100 µM | TGI (M14 melanoma): > 100 µM | TGI (MDA-N): > 100 µM | TGI (SK-OV-3 ovarian): > 100 µM | TGI (DU-145 prostate): > 100 µM | GI50 (SNB-19 CNS): > 100 µM | TGI (SNB-19 CNS): > 100 µM | TGI (NCI-H23 lung): > 100 µM | TGI (PC-3 prostate): > 100 µM | TGI (NCI/ADR-RES ovarian): > 100 µM | TGI (BT-549 breast): > 100 µM | TGI (OVCAR-8 ovarian): > 100 µM | TGI (A549 NSCLC): > 100 µM | TGI (SK-MEL-5 melanoma): > 100 µM | GI50 (KM12 colon): > 100 µM | TGI (KM12 colon): > 100 µM | TGI (OVCAR-4 ovarian): > 100 µM | GI50 (HOP-92 NSCLC): > 100 µM | TGI (HOP-92 NSCLC): > 100 µM | TGI (SR leukemia): > 100 µM | TGI (NCI-H226 lung): > 100 µM | TGI (LOX IMVI melanoma): > 100 µM | TGI (MCF7 breast): > 100 µM | TGI (COLO 205 colon): > 100 µM | TGI (HCC-2998 colon): > 100 µM | TGI (SN12C renal): > 100 µM | TGI (HCT-15 colon): > 100 µM | TGI (RPMI-8226 leukemia): > 100 µM | TGI (NCI-H460 lung): > 100 µM | TGI (NCI-H522 lung): > 100 µM | TGI (SK-MEL-2 melanoma): > 100 µM | TGI (RXF 393 renal): > 100 µM | TGI (SK-MEL-28 melanoma): > 100 µM | TGI (OVCAR-3 ovarian): > 32.4 µM | TGI (SW-620 colon): > 100 µM | TGI (SF-295 CNS): > 100 µM | TGI (HOP-62 NSCLC): > 100 µM | TGI (EKVX NSCLC): > 100 µM | GI50 (SF-268 CNS): > 100 µM | TGI (SF-268 CNS): > 100 µM | TGI (CCRF-CEM leukemia): > 100 µM | TGI (T-47D breast): > 100 µM | TGI (K-562 leukemia): > 100 µM | GI50 (SNB-75 CNS): > 100 µM | TGI (SNB-75 CNS): > 100 µM | TGI (CAKI-1 renal): > 100 µM | TGI (HCT-116 colon): > 100 µM | TGI (A498 renal): > 100 µM | GI50 (HS 578T breast): > 100 µM | TGI (HS 578T breast): > 100 µM | TGI (ACHN renal): > 100 µM | TGI (UACC-62 melanoma): > 100 µM

Cc1ccc(C=NC23CC4CC(CC(C4)C2)C3)cc1
TGI (KM20L2 colon): > 100 µM | TGI (SF-539 CNS): > 100 µM | TGI (786-0 renal): > 100 µM | TGI (TK-10 renal): > 100 µM | TGI (IGROV1 ovarian): > 100 µM | TGI (HT29 colon): > 100 µM | TGI (U251 CNS): > 100 µM | TGI (DMS 273 small cell lung): > 100 µM | TGI (MALME-3M melanoma): > 100 µM | TGI (HL-60(TB) leukemia): > 100 µM | TGI (MOLT-4 leukemia): > 100 µM | TGI (OVCAR-5 ovarian): > 100 µM | TGI (UACC-257 melanoma): > 100 µM | TGI (M14 melanoma): > 100 µM | TGI (SK-OV-3 ovarian): > 100 µM | TGI (NCI-H23 lung): > 100 µM | TGI (OVCAR-8 ovarian): > 100 µM | TGI (A549 NSCLC): > 100 µM | TGI (SK-MEL-5 melanoma): > 100 µM | TGI (KM12 colon): > 100 µM | TGI (OVCAR-4 ovarian): > 100 µM | TGI (SR leukemia): > 100 µM | TGI (NCI-H226 lung): > 100 µM | TGI (LOX IMVI melanoma): > 100 µM | TGI (XF 498 CNS): > 100 µM | TGI (COLO 205 colon): > 100 µM | TGI (HCC-2998 colon): > 100 µM | TGI (SN12C renal): > 100 µM | TGI (HCT-15 colon): > 100 µM | TGI (RPMI-8226 leukemia): > 100 µM | TGI (NCI-H460 lung): > 100 µM | TGI (SNB-78 CNS): > 100 µM | TGI (SK-MEL-2 melanoma): > 100 µM | TGI (RXF 393 renal): > 100 µM | TGI (SK-MEL-28 melanoma): > 100 µM | TGI (OVCAR-3 ovarian): > 100 µM | TGI (SW-620 colon): > 100 µM | TGI (SF-295 CNS): > 100 µM | TGI (DMS 114 small cell lung): > 100 µM | TGI (HOP-62 NSCLC): > 100 µM | TGI (EKVX NSCLC): > 100 µM | TGI (SF-268 CNS): > 100 µM | TGI (K-562 leukemia): > 100 µM | TGI (SNB-75 CNS): > 100 µM | TGI (M19-MEL melanoma): > 100 µM | TGI (CAKI-1 renal): > 100 µM | TGI (HCT-116 colon): > 100 µM | TGI (A498 renal): > 100 µM | TGI (ACHN renal): > 100 µM

Source: PubChem BioAssay (NCI)
